Test results published in US12077503B2, “Substituted cyclic amides and their use as herbicides” (FMC CORPORATION, priority 2015, dated 2024).

Key:
Format in all cases: in vivo
[1] = test system: ragweed (common ragweed, Ambrosia elatior); assay: Test A preemergence; settings: Ambrosia artemisiifolia, pre-emergence, 240 h, 0 to 100 scale where 0 is no effect and 100 is complete control, read-out: Ragweed plant response rating
Summary of the method: (§1)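 Seeds sprayed preemergence with a directed soil spray, or plants at 2 to 10 cm height and one- to two-leaf stage sprayed postemergence, with test chemicals in a non-phytotoxic solvent mixture containing surfactant, in loam soil–sand blend. Injury rated visually against untreated controls after about 10 d in greenhouse, 0 (no effect) to 100 (complete control).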

[2] = test system: pigweed (Amaranthus retroflexus); assay: Test A preemergence; settings: Amaranthus retroflexus, pre-emergence, 240 h, 0 to 100 scale where 0 is no effect and 100 is complete control, read-out: Pigweed plant response rating
[3] = test system: barnyardgrass (Echinochloa crus-galli); assay: Test A preemergence; settings: Echinochloa crus-galli, pre-emergence, 240 h, 0 to 100 scale where 0 is no effect and 100 is complete control, read-out: Barnyardgrass plant response rating
Summary of the method: as §1

Kochia (Kochia scoparia) [4] = assay: Test A preemergence; settings: Bassia scoparia, pre-emergence, 240 h, 0 to 100 scale where 0 is no effect and 100 is complete control, read-out: Kochia plant response rating
Summary of the method: as §1

[5] = test system: ryegrass, Italian (Italian ryegrass, Lolium multiflorum); assay: Test A preemergence; settings: Lolium multiflorum, pre-emergence, 240 h, 0 to 100 scale where 0 is no effect and 100 is complete control, read-out: Ryegrass, Italian plant response rating
Summary of the method: as §1

[6] = test system: giant foxtail (Setaria faberii); assay: Test A preemergence; settings: Setaria faberi, pre-emergence, 240 h, 0 to 100 scale where 0 is no effect and 100 is complete control, read-out: Foxtail, Giant plant response rating
Summary of the method: as §1

[7] = test system: ducksalad (Heteranthera limosa); assay: Test B flooded paddy test; settings: Heteranthera limosa, 250 g ai/ha, Flood; 0 to 100 scale where 0 is no effect and 100 is complete control; read-out: Ducksalad plant response rating
Summary of the method: (§2)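 Flooding to 3 cm over soil accompanied treatment, which consisted of adding compound to the standing water around 2-leaf plants; depth was then maintained. Visual assessment versus controls followed at 13 to 15 d (scale 0–100, 0 meaning no effect).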

[8] = test system: barnyardgrass (Echinochloa crus-galli); assay: Test B flooded paddy test; settings: Echinochloa crus-galli, 250 g ai/ha, Flood; 0 to 100 scale where 0 is no effect and 100 is complete control; read-out: Barnyardgrass plant response rating
Summary of the method: as §2

rice (Oryra sativa) = assay: Test B flooded paddy test; settings: Oryza sativa, 250 g ai/ha, Flood; 0 to 100 scale where 0 is no effect and 100 is complete control; read-out: Rice plant response rating
Summary of the method: as §2

[9] = test system: sedge, umbrella (small-flower umbrella sedge, Cyperus difformis); assay: Test B flooded paddy test; settings: Cyperus difformis, 250 g ai/ha, Flood; 0 to 100 scale where 0 is no effect and 100 is complete control; read-out: Sedge, Umbrella plant response rating
Summary of the method: as §2

[10] = test system: Galium (catchweed bedstraw, Galium aparine); assay: Test A postemergence; settings: Galium, post-emergence, 240 h, read-out: Galium plant response rating (0 to 100 scale)
Summary of the method: as §1

[11] = test system: blackgrass (Alopecurus myosuroides); assay: Test A postemergence; settings: Alopecurus myosuroides, post-emergence, 240 h, read-out: Blackgrass plant response rating (0 to 100 scale)
Summary of the method: as §1

[12] = test system: ragweed (common ragweed, Ambrosia elatior); assay: Test A postemergence; settings: Ambrosia artemisiifolia, post-emergence, 240 h, read-out: Ragweed plant response rating (0 to 100 scale)
Summary of the method: as §1

[13] = test system: wheat (Triticum aestivum); assay: Test A postemergence; settings: Triticum aestivum, post-emergence, 240 h, Postemergence, 31 g ai/ha; 0 is no effect, 100 is complete control; read-out: Wheat plant response rating (0 to 100 scale)
Summary of the method: as §1

[14] = test system: pigweed (Amaranthus retroflexus); assay: Test A postemergence; settings: Amaranthus retroflexus, post-emergence, 240 h, read-out: Pigweed plant response rating (0 to 100 scale)
Summary of the method: as §1

[15] = test system: barnyardgrass (Echinochloa crus-galli); assay: Test A postemergence; settings: Echinochloa crus-galli, post-emergence, 240 h, read-out: Barnyardgrass plant response rating (0 to 100 scale)
Summary of the method: as §1

Kochia (Kochia scoparia) [16] = assay: Test A postemergence; settings: Bassia scoparia, post-emergence, 240 h, read-out: Kochia plant response rating (0 to 100 scale)
Summary of the method: as §1

[17] = test system: ryegrass, Italian (Italian ryegrass, Lolium multiflorum); assay: Test A postemergence; settings: Lolium multiflorum, post-emergence, 240 h, read-out: Ryegrass, Italian plant response rating (0 to 100 scale)
Summary of the method: as §1

corn (Zea mays) = assay: Test A postemergence; settings: Zea mays, post-emergence, 240 h, read-out: Corn plant response rating (0 to 100 scale)
Summary of the method: as §1

[18] = test system: giant foxtail (Setaria faberii); assay: Test A postemergence; settings: Setaria faberi, post-emergence, 240 h, read-out: Foxtail, Giant plant response rating (0 to 100 scale)
Summary of the method: as §1

[19] = 125 g ai/ha, preemergence, visual injury rating, approximately 10 d
[20] = 125 g ai/ha, postemergence, visual injury vs untreated controls after approx. 10 d, 0 = no effect, 100 = complete control
[21] = Postemergence, 31 g ai/ha, 0 is no effect, 100 is complete control

Cn1ccc2ccc([C@H]3CNC(=O)[C@@H]3C(=O)Nc3ccccc3F)cc21 [Compound 1264]
0%: pest or weed control at 31 g/ha ([1]; 31 g ai/ha, Preemergence) | pest or weed control at 125 g/ha [1, 19] | pest or weed control at 31 g/ha ([2]; 31 g ai/ha, Preemergence) | pest or weed control at 125 g/ha [2, 19] | pest or weed control at 31 g/ha ([3]; 31 g ai/ha, Preemergence) | pest or weed control at 125 g/ha [3, 19] | pest or weed control at 31 g/ha (Kochia (Kochia scoparia) [4]; 31 g ai/ha, Preemergence) | pest or weed control at 125 g/ha (Kochia (Kochia scoparia) [4]; [19]) | pest or weed control at 31 g/ha ([5]; 31 g ai/ha, Preemergence) | pest or weed control at 125 g/ha [5, 19] | pest or weed control at 31 g/ha ([6]; 31 g ai/ha, Preemergence) | pest or weed control at 125 g/ha [6, 19] | pest or weed control at 250 g/ha [7] | pest or weed control at 250 g/ha [8] | pest or weed control at 250 g/ha (rice (Oryra sativa)) | pest or weed control at 250 g/ha [9] | pest or weed control at 125 g/ha [10, 20] | pest or weed control at 31 g/ha [10, 21] | pest or weed control at 125 g/ha [11, 20] | pest or weed control at 31 g/ha [11, 21] | pest or weed control at 125 g/ha [12, 20] | pest or weed control at 31 g/ha [12, 21] | plant injury at 31 g/ha [13] | pest or weed control at 125 g/ha [14, 20] | pest or weed control at 31 g/ha [14, 21] | pest or weed control at 125 g/ha [15, 20] | pest or weed control at 31 g/ha [15, 21] | pest or weed control at 125 g/ha (Kochia (Kochia scoparia) [16]; [20]) | pest or weed control at 31 g/ha (Kochia (Kochia scoparia) [16]; [21]) | pest or weed control at 125 g/ha [17, 20] | pest or weed control at 31 g/ha [17, 21] | plant injury at 125 g/ha (corn (Zea mays); [20]) | plant injury at 31 g/ha (corn (Zea mays); [21]) | pest or weed control at 125 g/ha [18, 20] | pest or weed control at 31 g/ha [18, 21]
